Tested on: mouse T lymphocytes stimulated with the combination of ionomycin plus PMA
Assay: T-cell proliferation assay (ionomycin plus PMA induced T-cell stimulation, tritiated thymidine uptake)
Format: cell-based
Settings: for immunosuppressive activity, inhibition of T-cell activation: qualitative statement
Source text: The principle of this assay is to measure the proliferation of mouse T lymphocytes stimulated with the combination of ionomycin plus PMA. A positive sample in this assay will inhibit T-cell proliferation, as indicated by reduced tritiated thymidine uptake.
Spleens from C57B1/6 mice were taken under sterile conditions and gently dissociated in ice-cold RPMI 1640 culture medium (GIBCO, Grand Island, N.Y.) supplemented with 10% heat-inactivated fetal calf serum (GIBCO). Cells were pelleted by centrifugation at 1500 rpm for 8 minutes. Contaminating red cells were removed by treating the pellet with ammonium chloride lysing buffer (GIBCO) for 2 minutes at 4°C. Cold medium was added and cells were again centrifuged at 1500 rpm for 8 minutes. T lymphocytes were then isolated by separation of the cell suspension on nylon wool columns as follows: Nylon wool columns were prepared by packing approximately 4 grams of washed and dried nylon wool into 20 ml plastic syringes. The columns were sterilized by autoclaving at 250°F for 30 minutes. Nylon wool columns were wetted with warm (37°C) culture medium and rinsed with the same medium. Washed spleen cells resuspended in warm medium were slowly applied to the nylon wool. The columns were then incubated in an upright position at 37°C for 1 hour. Non-adherent T lymphocytes were eluted from the columns with warm culture medium and the cell suspensions were spun as above.
Purified T lymphocytes were resuspended at 2.5 x 10⁵ cells/ml in complete culture medium composed of RPMI 1640 medium with 10% heat-inactivated fetal calf serum, 100 mM glutamine, 1 mM sodium pyruvate, 2 x 10⁻⁵ M 2-mercaptoethanol and 50 µg/ml gentamycin. Ionomycin was added at 250 ng/ml and PMA at 10 ng/ml. The cell suspension was immediately distributed into 96 well flat-bottom microculture plates (Costar) at 200 µl/well. […] L-679,934 was used as a standard. The culture plates were then incubated at 37°C in a humidified atmosphere of 5% CO₂-95% air for 44 hours. The proliferation of T lymphocytes was assessed by measurement of tritiated thymidine incorporation. After 44 hours of culturing, the cells were pulse-labelled with 2 µCi/well of tritiated thymidine (NEN, Cambridge, MA). After another 4 hours of incubation, cultures were harvested on glass fiber filters using a multiple sample harvester. Radioactivity of filter discs corresponding to individual wells was measured by standard liquid scintillation counting methods (Betacounter). Mean counts per minute of replicate wells were calculated and the results expressed as percent inhibition of tritiated thymidine uptake (proliferation) as follows: [formula]
Purified T lymphocytes were resuspended at 2.5 x 10⁵ cells/ml in complete culture medium composed of RPMI 1640 medium with 10% heat-inactivated fetal calf serum, 100 mM glutamine, 1 mM sodium pyruvate, 2 x 10⁻⁵ M 2-mercaptoethanol and 50 µg/ml gentamycin. Ionomycin was added at 250 ng/ml and PMA at 10 ng/ml. The cell suspension was immediately distributed into 96 well flat-bottom microculture plates (Costar) at 200 µl/well. […] L-679,934 was used as a standard. The culture plates were then incubated at 37°C in a humidified atmosphere of 5% CO₂-95% air for 44 hours. The proliferation of T lymphocytes was assessed by measurement of tritiated thymidine incorporation. After 44 hours of culturing, the cells were pulse-labelled with 2 µCi/well of tritiated thymidine (NEN, Cambridge, MA). After another 4 hours of incubation, cultures were harvested on glass fiber filters using a multiple sample harvester.

C=CC[C@@H]1/C=C(\C)C[C@H](C)C[C@H](OC)[C@H]2O[C@@](O)(C(=O)C(=O)N3CCCC[C@H]3C(=O)O[C@H](/C(C)=C/[C@@H]3CC[C@@H](O)[C@H](O)C3)[C@H](C)[C@@H](O)CC1=O)[C@H](C)C[C@@H]2OC [demethomycin, 31-desmethoxy-31-hydroxy-L-679,934]
% Inhibition (0.29 ng/ml, ³H-thymidine pulse 4 hours, harvest at 48 hours): 0% | % Inhibition (0.44 ng/ml, ³H-thymidine pulse 4 hours, harvest at 48 hours): 0% | % Inhibition (0.66 ng/ml, ³H-thymidine pulse 4 hours, harvest at 48 hours): 36.8% | % Inhibition (0.99 ng/ml, ³H-thymidine pulse 4 hours, harvest at 48 hours): 67.1% | % Inhibition (1.5 ng/ml, ³H-thymidine pulse 4 hours, harvest at 48 hours): 80.5% | % Inhibition (2.2 ng/ml, ³H-thymidine pulse 4 hours, harvest at 48 hours): 92.9% | % Inhibition (3.3 ng/ml, ³H-thymidine pulse 4 hours, harvest at 48 hours): 97.2% | % Inhibition (5 ng/ml, ³H-thymidine pulse 4 hours, harvest at 48 hours): 98.1% | immunosuppressive activity, inhibition of T-cell activation: positive inhibition of T-cell activation

C=CC[C@@H]1/C=C(\C)C[C@H](C)C[C@H](OC)[C@H]2O[C@@](O)(C(=O)C(=O)N3CCCC[C@H]3C(=O)O[C@H](/C(C)=C/[C@@H]3CC[C@@H](O)[C@H](OC)C3)[C@H](C)[C@@H](O)CC1=O)[C@H](C)C[C@@H]2OC [L-679,934, reference compound]
inhibition at 0.01 µg/mL (Mus musculus, T-lymphocyte, 10 ng/ml, ³H-thymidine pulse 4 hours, harvest at 48 hours): 99%

CC[C@@H]1/C=C(\C)C[C@H](C)C[C@H](OC)[C@H]2O[C@@](O)(C(=O)C(=O)N3CCCC[C@H]3C(=O)O[C@H](/C(C)=C/[C@@H]3CC[C@@H](O)[C@H](O)C3)[C@H](C)[C@@H](O)CC1=O)[C@H](C)C[C@@H]2OC [demethimmunomycin, 31-desmethoxy-31-hydroxy-L-683,590]
% Inhibition (0.6 ng/ml, ³H-thymidine pulse 4 hours, harvest at 48 hours): 0% | % Inhibition (0.9 ng/ml, ³H-thymidine pulse 4 hours, harvest at 48 hours): 9.0% | % Inhibition (1.3 ng/ml, ³H-thymidine pulse 4 hours, harvest at 48 hours): 38.2% | % Inhibition (1.9 ng/ml, ³H-thymidine pulse 4 hours, harvest at 48 hours): 72.1% | % Inhibition (2.9 ng/ml, ³H-thymidine pulse 4 hours, harvest at 48 hours): 86.3% | % Inhibition (4.4 ng/ml, ³H-thymidine pulse 4 hours, harvest at 48 hours): 91.9% | % Inhibition (6.6 ng/ml, ³H-thymidine pulse 4 hours, harvest at 48 hours): 97.9% | % Inhibition (10 ng/ml, ³H-thymidine pulse 4 hours, harvest at 48 hours): 98.6% | immunosuppressive activity, inhibition of T-cell activation: positive inhibition of T-cell activation

— EP0353827A2, “New immunosuppressant-producing culture” (MERCK & CO. INC., priority 1988, dated 1990)
